The test system of the assay is Wnt activity (Sp5-Luc reporter, TCF/LEF binding sites) in SW480 colon carcinoma cells. Kind of assay: Screening assay for Wnt activity: Sp5-Luc reporter gene assay in stably transduced SW480 colon carcinoma cells. The format is cell-based. The conditions noted are these: Homo sapiens; for EC50: overnight incubation, 10-point curve from 10 μM; for inhibition at 10 µM: given where EC50 >10 μM, read-out: percent inhibition at 10 μM. The essentials: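 SW480 cells stably transduced with a luciferase reporter driven by an Sp5 promoter of eight TCF/LEF sites were plated at 4,000 cells/well in 1% FBS medium. They were exposed overnight at 37° C to a 10-point 1:3 dilution series from 10 μM (0.1% DMSO). Luminescence was normalized to DMSO for four-parameter EC50, or percent inhibition at 10 μM.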
(In general: Reporter assays use an easily measured gene product as a stand-in for the process of interest.)

A value given as a limit tells only on which side of the number the result lay.

A word on the EC50: it is the concentration needed to bring the measured effect to its halfway point. Low readings indicate higher potency in that assay, high ones lower potency in that assay. What is called inhibition is how much of the control response was suppressed.

Consider `c1ccc(-c2ccc3[nH]nc(-c4cc5c(-c6ccoc6)cccc5[nH]4)c3c2)nc1` [Compound 336, 3-(4-(Furan-3-yl)-1H-indol-2-yl)-5-(pyridin-2-yl)-1H-indazole], for which a half-maximal effect (EC50) was put at 3910 nM.

On to `CC(C)(C)CC(=O)Nc1cncc(-c2ccc3[nH]nc(-c4cc5c(-c6ccc(F)cc6)cccc5[nH]4)c3c2)c1` [Compound 44, N-(5-(3-(4-(4-Fluorophenyl)-1H-indol-2-yl)-1H-indazol-5-yl)pyridin-3-yl)-3,3-dimethylbutanamide], for which the concentration for a half-maximal effect (EC50) is 1150 nM.

`CCC(=O)Nc1cncc(-c2ccc3[nH]nc(-c4cc5ccccc5[nH]4)c3c2)c1` [Compound 253, N-(5-(3-(1H-Indol-2-yl)-1H-indazol-5-yl)pyridin-3-yl)propionamide] had an EC50 of 160 nM. `O=C(Nc1cncc(-c2ccc3[nH]nc(-c4cc5c(-c6ccc(F)cc6)cccc5[nH]4)c3c2)c1)c1ccccc1` [Compound 39, N-(5-(3-(4-(4-Fluorophenyl)-1H-indol-2-yl)-1H-indazol-5-yl)pyridin-3-yl) benzamide] displayed an EC50 of 530 nM. Still for that read-out and setting: for `CC(C)(C)C(=O)Nc1cncc(-c2ccc3[nH]nc(-c4cc5c(-c6cc(F)cc(CNS(C)(=O)=O)c6)cccc5[nH]4)c3c2)c1` [Compound 484, N-(5-(3-(4-(3-Fluoro-5-(methylsulfonamidomethyl)phenyl)-1H-indol-2-yl)-1H-indazol-5-yl)pyridin-3-yl)pivalamide] the value was 115 nM; for `c1cc(-c2ccoc2)c2cc(-c3n[nH]c4ccc(-c5cncc(OC6CCNCC6)c5)cc34)[nH]c2c1` [Compound 716, 3-(4-(Furan-3-yl)-1H-indol-2-yl)-5-(5-(piperidin-4-yloxy)pyridin-3-yl)-1H-indazole], 628 nM. Same read-out and setting: the result for `CC(C)(C)C(=O)Nc1cncc(-c2ccc3[nH]nc(-c4cc5c(-c6ccc(F)cc6)cccc5[nH]4)c3c2)c1` [Compound 36, N-(5-(3-(4-(4-Fluorophenyl)-1H-indol-2-yl)-1H-indazol-5-yl)pyridin-3-yl) pivalamide] reads 655 nM. The compound `CCC(=O)Nc1cncc(-c2ccc3[nH]nc(-c4cc5c(-c6cccc(F)c6)cccc5[nH]4)c3c2)c1` [Compound 1, N-(5-(3-(4-(3-Fluorophenyl)-1H-indol-2-yl)-1H-indazol-5-yl)pyridin-3-yl) propionamide] came in with an EC50 of 57 nM. For the compound `FC1(F)CCN(Cc2cncc(-c3ccc4[nH]nc(-c5cc6c(-c7cccnc7)cccc6[nH]5)c4c3)c2)C1` [Compound 110, 5-(5-((3,3-Difluoropyrrolidin-1-yl)methyl)pyridin-3-yl)-3-(4-(pyridin-3-yl)-1H-indol-2-yl)-1H-indazole], the inhibition at 10 µM was determined as 30.1% and the half-maximal effective concentration (EC50) was more than 10000 nM. In the case of `Fc1cccc(-c2cccc3[nH]c(-c4n[nH]c5ccc(-c6cccnc6)cc45)cc23)c1` [Compound 4, 3-(4-(3-Fluorophenyl)-1H-indol-2-yl)-5-(pyridin-3-yl)-1H-indazole], the EC50 stood at 275 nM. Take `Fc1cccc(-c2cccc3[nH]c(-c4n[nH]c5ccc(C6CCNCC6)cc45)cc23)c1` [Compound 533, 3-(4-(3-Fluorophenyl)-1H-indol-2-yl)-5-(piperidin-4-yl)-1H-indazole]: the response was half-maximal at 3830 nM (EC50). Still for that read-out and setting: for `CCNCc1cncc(-c2ccc3[nH]nc(-c4cc5c(-c6ccccc6F)cccc5[nH]4)c3c2)c1` [Compound 62, N-((5-(3-(4-(2-Fluorophenyl)-1H-indol-2-yl)-1H-indazol-5-yl)pyridin-3-yl)methyl)ethanamine] the value was 4180 nM. As to `O=C(Cc1ccccc1)Nc1cncc(-c2ccc3[nH]nc(-c4cc5c(-c6ccncc6)cccc5[nH]4)c3c2)c1` [Compound 122, 2-Phenyl-N-(5-(3-(4-(pyridin-4-yl)-1H-indol-2-yl)-1H-indazol-5-yl)pyridin-3-yl)acetamide], the inhibition at 10 µM turned out to be 45.5% and the EC50 is more than 10000 nM. Compound `c1ccc(-c2ccc3[nH]nc(-c4cc5c(-c6ccncc6)cccc5[nH]4)c3c2)nc1` [Compound 140, 5-(Pyridin-2-yl)-3-(4-(pyridin-4-yl)-1H-indol-2-yl)-1H-indazole] gave a concentration giving a half-maximal response (EC50) of 3560 nM. On the same count and under the same terms, for `CS(=O)(=O)NCc1cc(F)cc(-c2cccc3[nH]c(-c4n[nH]c5ccc(-c6ccncc6)cc45)cc23)c1` [Compound 494, N-(3-Fluoro-5-(2-(5-(pyridin-4-yl)-1H-indazol-3-yl)-1H-indol-4-yl)benzyl) methane sulfonamide] the value was 3900 nM; for `O=C(Nc1cncc(-c2ccc3[nH]nc(-c4cc5ncccc5[nH]4)c3c2)c1)C1CCC1` [Compound 525, N-(5-(3-(1H-Pyrrolo[3,2-b]pyridin-2-yl)-1H-indazol-5-yl)pyridin-3-yl) cyclobutanecarboxamide], 109 nM; for `O=C(Nc1cncc(-c2ccc3[nH]nc(-c4cc5c(-c6ccccc6F)cccc5[nH]4)c3c2)c1)C1CCCC1` [Compound 78, N-(5-(3-(4-(2-Fluorophenyl)-1H-indol-2-yl)-1H-indazol-5-yl)pyridin-3-yl) cyclopentanecarboxamide], 1060 nM. Take `Fc1ccc(-c2cccc3[nH]c(-c4n[nH]c5ccc(C6=CCNCC6)cc45)cc23)cc1` [Compound 550, 3-(4-(4-Fluorophenyl)-1H-indol-2-yl)-5-(1,2,3,6-tetrahydropyridin-4-yl)-1H-indazole]: the inhibition at 10 µM was determined as 48% and the half-maximal effective concentration (EC50) is more than 10000 nM. In the case of `c1cnc2cc(-c3n[nH]c4ccc(-c5cncc(CN6CCCCC6)c5)cc34)[nH]c2c1` [Compound 519, 5-(5-(Piperidin-1-ylmethyl)pyridin-3-yl)-3-(1H-pyrrolo[3,2-b]pyridin-2-yl)-1H-indazole], the 50% effective concentration (EC50) amounted to 165 nM. Consider `CC(C)C(=O)Nc1cncc(-c2ccc3[nH]nc(-c4cc5c(-c6ccsc6)cccc5[nH]4)c3c2)c1` [Compound 289, N-(5-(3-(4-(Thiophen-3-yl)-1H-indol-2-yl)-1H-indazol-5-yl)pyridin-3-yl) isobutyramide], for which the EC50 came out at 120 nM. On the same count and under the same terms, the result for `CCCC(=O)Nc1cncc(-c2ccc3[nH]nc(-c4cc5c(-c6ccc(F)cc6)cccc5[nH]4)c3c2)c1` [Compound 45, N-(5-(3-(4-(4-Fluorophenyl)-1H-indol-2-yl)-1H-indazol-5-yl)pyridin-3-yl)butyramide] reads 475 nM.

Consider `Cc1ncc(-c2ccc3[nH]nc(-c4cc5c(-c6ccncc6)cccc5[nH]4)c3c2)n1C` [Compound 601, 5-(1,2-Dimethyl-1H-imidazol-5-yl)-3-(4-(pyridin-4-yl)-1H-indol-2-yl)-1H-indazole], for which the inhibition at 10 µM is 32.4% and the concentration for a half-maximal effect (EC50) is more than 10000 nM. `CC(C)(C)CC(=O)Nc1cncc(-c2ccc3[nH]nc(-c4cc5ccccc5[nH]4)c3c2)c1` [Compound 268, N-(5-(3-(1H-Indol-2-yl)-1H-indazol-5-yl)pyridin-3-yl)-3,3-dimethylbutanamide] showed a concentration for a half-maximal effect (EC50) of 185 nM.

Turning to `Cc1ccncc1-c1ccc2[nH]nc(-c3cc4c(-c5ccccn5)cccc4[nH]3)c2c1` [Compound 145, 5-(4-Methylpyridin-3-yl)-3-(4-(pyridin-2-yl)-1H-indol-2-yl)-1H-indazole], the EC50 was 1900 nM.

`Fc1cccc(-c2cccc3[nH]c(-c4n[nH]c5ccc(-c6ccccn6)cc45)cc23)c1` [Compound 28, 3-(4-(3-Fluorophenyl)-1H-indol-2-yl)-5-(pyridin-2-yl)-1H-indazole] displayed an EC50 of 440 nM.

The compound `O=C(Cc1ccccc1)Nc1cncc(-c2ccc3[nH]nc(-c4cc5ccccc5[nH]4)c3c2)c1` [Compound 262, N-(5-(3-(1H-Indol-2-yl)-1H-indazol-5-yl)pyridin-3-yl)-2-phenylacetamide] showed an EC50 of 1560 nM. Still for that read-out and setting: for `O=C(Nc1cncc(-c2ccc3[nH]nc(-c4cc5c(-c6cccc(F)c6)cccc5[nH]4)c3c2)c1)C1CCCCC1` [Compound 23, N-(5-(3-(4-(3-Fluorophenyl)-1H-indol-2-yl)-1H-indazol-5-yl)pyridin-3-yl) cyclohexanecarboxamide] the value was 595 nM; for `c1cc(N2CCCCC2)c2cc(-c3n[nH]c4ccc(-c5cncc(OC6CCCCC6)c5)cc34)[nH]c2c1` [Compound 635, 5-(5-(Cyclohexyloxy)pyridin-3-yl)-3-(4-(piperidin-1-yl)-1H-indol-2-yl)-1H-indazole], 2930 nM. `O=C(Nc1cncc(-c2ccc3[nH]nc(-c4cc5c(-c6ccncc6)cccc5[nH]4)c3c2)c1)C1CCCCC1` [Compound 135, N-(5-(3-(4-(Pyridin-4-yl)-1H-indol-2-yl)-1H-indazol-5-yl)pyridin-3-yl) cyclohexanecarboxamide] yielded a half-maximal effective concentration (EC50) of 4400 nM. Same read-out and setting: for `CCCCC(=O)Nc1cncc(-c2ccc3[nH]nc(-c4cc5c(-c6ccccn6)cccc5[nH]4)c3c2)c1` [Compound 159, N-(5-(3-(4-(Pyridin-2-yl)-1H-indol-2-yl)-1H-indazol-5-yl)pyridin-3-yl) pentanamide] the value was 1670 nM; for `O=C(Nc1cncc(-c2ccc3[nH]nc(-c4cc5ncccc5[nH]4)c3c2)c1)c1ccccc1` [Compound 515, N-(5-(3-(1H-Pyrrolo[3,2-b]pyridin-2-yl)-1H-indazol-5-yl)pyridin-3-yl) benzamide], 908 nM. Turning to `c1csc(-c2cccc3[nH]c(-c4n[nH]c5ccc(-c6ccncc6)cc45)cc23)c1` [Compound 354, 5-(pyridin-4-yl)-3-(4-(thiophen-2-yl)-1H-indol-2-yl)-1H-indazole], a half-maximal response (EC50) required 4940 nM. Take `c1cc(-c2ccncc2)c2cc(-c3n[nH]c4ccc(-c5ccncc5)cc34)[nH]c2c1` [Compound 130, 5-(Pyridin-4-yl)-3-(4-(pyridin-4-yl)-1H-indol-2-yl)-1H-indazole]: the inhibition at 10 µM is 52.8% and the concentration for a half-maximal effect (EC50) is more than 10000 nM. In turn, `CC(C)CC(=O)Nc1cncc(-c2ccc3[nH]nc(-c4cc5c(-c6ccc(F)cc6)cccc5[nH]4)c3c2)c1` [Compound 30, N-(5-(3-(4-(4-Fluorophenyl)-1H-indol-2-yl)-1H-indazol-5-yl)pyridin-3-yl)-3-methylbutanamide] returned an EC50 of 420 nM.

These data come from US10604512B2, “3-(1H-indol-2-yl)-1H-indazoles and therapeutic uses thereof” (Samumed, LLC, priority 2015, dated 2020).
